Assay results as given in PubChem BioAssay AID687005 (Broad Institute, 2013).
Inconclusive results are not listed. Activity calls are given as the source filed them.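 Rule for the calls: active = Compounds that reduce signal, with fitted half-maximal dose at or under twice the top valid tested dose; inconclusive = Poor fit, or flat curve losing 30 to 70% of signal; inactive = Potency past limit, flat within 30%, or opposite direction.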

Assay: HEK293T cell cytotoxicity, dose response, cytotoxicity control, ATP luminescence, cherry-pick samples (AID 687005)
Details: HEK293T viability, ATP luminescence (CellTiter-Glo), 48 h; at 23.5 µM (top of the series)

| Structure (SMILES) | activity change, negative = cytotoxicity |
| --- | --- |
| Cc1ccc(S(=O)(=O)Nc2ccc3c(c2)C(=O)N([C@@H](C)CO)C[C@H](C)[C@H](CN(C)C(=O)Nc2ccc(C(F)(F)F)cc2)O3)cc1 | -1.43% (inactive) |
| C[C@@H]1CCCCO[C@@H](CN(C)CC2CCCCC2)[C@@H](C)CN([C@@H](C)CO)C(=O)c2cc(NS(=O)(=O)c3ccccc3)ccc2O1 | -40.3% (inactive) |
| COc1ccc(CN(C)C[C@@H]2Oc3ccc(NC(=O)C4CC4)cc3C(=O)N([C@@H](C)CO)C[C@H]2C)cc1 | 8.64% (inactive) |
| CC(C)NC(=O)N1CC[C@@H]2[C@@H](CO)N(C)c3ccc(-c4cccc(F)c4)cc3[C@@H]21 | 40.1% (inactive) |
| COc1ccc(CN(C)C[C@H]2OCCCC[C@@H](C)Oc3ccc(NC(=O)c4ccccc4)cc3C(=O)N([C@H](C)CO)C[C@@H]2C)cc1 | -10.4% (inactive) |
| COc1cccc(S(=O)(=O)Nc2ccc3c(c2)[C@H]2C[C@H](CC(=O)NCc4cccc(F)c4)O[C@@H](CO)[C@H]2O3)c1 | -22.3% (inactive) |
| C[C@@H]1CN([C@@H](C)CO)C(=O)c2cc(NC(=O)Nc3ccc(F)cc3)ccc2O[C@@H](C)CCCCO[C@H]1CN(C)S(=O)(=O)c1ccccc1 | 3.48% (inactive) |

Same assay, conditions: HEK293T viability, ATP luminescence (CellTiter-Glo), 48 h; at 26 µM (top of the series)

| Structure (SMILES) | activity change, negative = cytotoxicity |
| --- | --- |
| CNC[C@H]1Oc2c(NS(=O)(=O)c3cccs3)cccc2C(=O)N([C@H](C)CO)C[C@@H]1C | -26.9% (inactive) |
| CC(C)CC#Cc1cnc2c(c1)C(=O)N([C@H](C)CO)C[C@H](C)[C@H](CN(C)C(=O)c1cccnc1)O2 | -8.15% (inactive) |
| O=C(C[C@H]1C=C[C@H](NC(=O)C2CCC2)[C@@H](CO)O1)NC1CCC1 | -2.82% (inactive) |
| COc1cccc(S(=O)(=O)Nc2ccc3c(c2)[C@H]2C[C@H](CC(=O)N(C)C)O[C@@H](CO)[C@H]2O3)c1 | -5.49% (inactive) |
| CC(C)(C)SCCNC(=O)CN(c1ccccc1)S(=O)(=O)c1ccc(F)cc1 | -6.34% (inactive) |
| C[C@@H]1CN([C@@H](C)CO)C(=O)c2cccc(NS(=O)(=O)c3ccc(F)cc3)c2O[C@H]1CN(C)S(=O)(=O)c1ccc(Cl)cc1 | -22.8% (inactive) |
| C[C@@H]1CCCCO[C@H](CN(C)Cc2ccc3c(c2)OCO3)[C@H](C)CN([C@H](C)CO)C(=O)c2cc(NC(=O)Nc3cccc4ccccc34)ccc2O1 | 171% (inactive) |
| C[C@@H]1CCCCO[C@H](CN(C)C(=O)CCCN(C)C)[C@@H](C)CN([C@H](C)CO)C(=O)c2cc(NC(=O)Cc3ccccc3)ccc2O1 | 5.89% (inactive) |
| C[C@@H]1CN([C@@H](C)CO)S(=O)(=O)c2ccc(C#Cc3ccc(F)cc3)cc2O[C@H]1CN(C)C(=O)NC1CCCC1 | 39.2% (inactive) |
| Cc1c(C(=O)NC(=S)Nc2ccc(N3CCOCC3)cc2)cccc1[N+](=O)[O-] | -33.3% (inactive) |
| Cc1noc(C)c1S(=O)(=O)Nc1ccc2c(c1)C(=O)N([C@@H](C)CO)C[C@H](C)[C@@H](CN(C)Cc1ccc3c(c1)OCO3)OCCCC[C@@H](C)O2 | 45.4% (inactive) |
| COc1ccccc1C(=O)N1C[C@H]2[C@@H](c3ccccc31)[C@@H](CO)N2C(=O)Cc1ccccc1 | -6.87% (inactive) |
| C[C@@H]1CN([C@@H](C)CO)C(=O)CCCn2nncc2CO[C@@H]1CN(C)Cc1cccc(C(F)(F)F)c1 | -9.87% (inactive) |
| COc1ccc(CN(C)C[C@@H]2OCCCC[C@@H](C)Oc3ccc(NC(=O)c4ccccc4)cc3C(=O)N([C@H](C)CO)C[C@@H]2C)cc1 | -11.1% (inactive) |
| COc1ccc(NC(=S)NCc2ccc(Cl)cc2)c(OC)c1 | 0.916% (inactive) |
| COCC(=O)NC[C@@H]1N[C@@H](CO)[C@H]1c1ccc(C2=CCCC2)cc1 | 26.4% (inactive) |
| Cc1noc(C)c1NC(=O)Nc1cccc2c1O[C@H](CN(C)S(=O)(=O)c1cn(C)cn1)[C@H](C)CN([C@H](C)CO)C2=O | -29.5% (inactive) |
| Cc1noc(C)c1S(=O)(=O)Nc1ccc2c(c1)CC(=O)N([C@H](C)CO)C[C@H](C)[C@@H](CN(C)S(=O)(=O)c1cn(C)cn1)O2 | -28.7% (inactive) |
| Cc1noc(C)c1S(=O)(=O)N(C)C[C@H]1OCCCC[C@@H](C)Oc2ccc(NC(=O)CCCCCC(=O)Nc3ccccc3N)cc2C(=O)N([C@@H](C)CO)C[C@@H]1C | -1.73% (inactive) |
| C[C@@H]1CN([C@H](C)CO)C(=O)c2cc(-c3cccc(F)c3)cnc2O[C@H]1CN(C)Cc1ccccc1 | -7.8% (inactive) |

| Structure (SMILES) | activity change, negative = cytotoxicity |
| --- | --- |
| CCc1ccc(NC(=O)[C@H](C)NC(=O)C2CCN(C(=O)[C@@H](N)C(C)C)CC2)cc1 | -17.1% (inactive) |
| CNC[C@@H]1OCCCC[C@@H](C)Oc2ccc(NC(=O)NC(C)C)cc2C(=O)N([C@@H](C)CO)C[C@H]1C | 34.5% (inactive) |
| CNC[C@H]1Oc2ncc(C#CCC(C)C)cc2C(=O)N([C@H](C)CO)C[C@H]1C | 29% (inactive) |
| Cc1ccc(CSc2ncnc3c2cnn3-c2ccc(C)cc2)cc1 | -28.8% (inactive) |
| CCC(=O)N(C)C[C@H]1Oc2cc(-c3ccccc3)ccc2S(=O)(=O)N([C@H](C)CO)C[C@H]1C | 6.53% (inactive) |
| O=C(NC(=S)Nc1ccc(CN2CCOCC2)cc1)c1ccc([N+](=O)[O-])cc1 | -19.4% (inactive) |
| Cc1ccccc1NC(=O)C(NC1CCCCC1)C(C)C (stereo unspecified) | -12.2% (inactive) |
| CCCC(=O)N1CCCC1(C)C(=O)Nc1cc(C)ccc1C (stereo unspecified) | 3.87% (inactive) |
| CC(=O)N[C@H]1CC[C@@H](CCNC(=O)C2CCC2)O[C@H]1CO | 1.44% (inactive) |
| O=C(Nc1cccc(F)c1)N[C@H]1CC[C@@H](CCNS(=O)(=O)c2cccc(Cl)c2)O[C@@H]1CO | -36.3% (inactive) |
| COc1cc2c(C(=O)N(C)c3cc(Cl)ccc3OC)cn(C)c(=O)c2cc1OC | -3.77% (inactive) |
| CCC(=O)N(C)C[C@H]1Oc2cc(C#CC(C)(C)O)ccc2S(=O)(=O)N([C@H](C)CO)C[C@@H]1C | 41.1% (inactive) |
| Cc1ccc(OCCn2c(=S)[nH]c3ccccc32)c(C(C)C)c1 | -49.7% (inactive) |
| O=C(CSc1ncnc2c1cnn2-c1ccc(Cl)cc1)NCc1ccc2c(c1)OCO2 | -9.56% (inactive) |
| C[C@@H]1CN([C@@H](C)CO)C(=O)c2cc(NS(=O)(=O)c3cn(C)cn3)ccc2O[C@@H]1CN(C)C(=O)Nc1cccc2ccccc12 | -15.2% (inactive) |
| COCCNC(=O)C[C@@H]1CC[C@@H]2[C@H](COC[C@@H](O)CN2S(=O)(=O)c2ccccc2C)O1 | 31.5% (inactive) |
| CC(C)C#Cc1ccc2c(c1)O[C@H](CN(C)C(=O)Cc1ccccn1)[C@H](C)CN([C@H](C)CO)S2(=O)=O | -25.6% (inactive) |
| O=C1CCC(C(=O)Nc2cccc3ccccc23)N1 (stereo unspecified) | 25.1% (inactive) |
| CNC(=O)C[C@@H]1CC[C@H]2[C@@H](COC[C@H](O)CN2C(=O)Nc2ccc3c(c2)OCO3)O1 | -5.64% (inactive) |
| COc1ccccc1CNC(=S)NCc1ccc(Cl)cc1 | 13.5% (inactive) |

| Structure (SMILES) | activity change, negative = cytotoxicity |
| --- | --- |
| COc1ccc(N(CC(=O)NCCSCc2ccc(C)cc2)S(=O)(=O)c2ccccc2)cc1 | -65.3% (inactive) |
| Cc1cccc(C)c1NC(=O)C(C)N1CCCC1 (stereo unspecified) | -44.2% (inactive) |
| CO[C@H]1CN(C)C(=O)c2ccc(NC(C)=O)cc2OC[C@H](C)N(C(=O)c2ccncc2)C[C@@H]1C | -20% (inactive) |
| C[C@H](CO)N1C[C@H](C)[C@@H](CN(C)S(=O)(=O)c2cn(C)cn2)Oc2c(NC(=O)Nc3ccccc3)cccc2C1=O | 1.19% (inactive) |
| COc1cccc(-c2ccc3c(c2)[C@H]2[C@H](CCN2C(=O)Cc2ccncc2)[C@H](CO)N3C)c1 | 125% (inactive) |
| Cc1cccc(C)c1NC(=O)CN(C)C(=O)C1CCCCC1 | -11.8% (inactive) |
| O=C1CCC(C(=O)Nc2ccc(Cl)cc2)N1 (stereo unspecified) | 11% (inactive) |
| COc1ccc(CN(C)C[C@@H]2OCCCC[C@H](C)Oc3ccc(N(C)C)cc3C(=O)N([C@H](C)CO)C[C@@H]2C)cc1 | 12.7% (inactive) |
| O=C(NC(=S)Nc1ccccc1N1CCOCC1)c1ccccc1F | -0.484% (inactive) |
| COc1cccc(S(=O)(=O)N2C[C@@H](O)COC[C@H]3O[C@H](CC(=O)Nc4ccccc4)CC[C@@H]32)c1 | -41.6% (inactive) |
| CCCNC(=O)[C@H]1[C@H](CO)[C@H]2Cn3c(cccc3=O)[C@@H]1N2C(=O)Nc1cc(F)ccc1F | 42.5% (inactive) |
| C[C@H](NC(=O)C[C@@H]1C=C[C@H](NC(=O)CN2CCOCC2)[C@@H](CO)O1)c1ccccc1 | 18.6% (inactive) |
| C[C@@H]1CN([C@@H](C)CO)C(=O)c2cc(C3=CCCCC3)cnc2O[C@H]1CN(C)C(=O)Cc1cccnc1 | -18.3% (inactive) |
| C[C@H]1CCCCO[C@H](CN(C)C(=O)c2ccncc2)[C@@H](C)CN([C@@H](C)CO)C(=O)c2cc(NC(=O)Cc3ccccc3)ccc2O1 | -3.36% (inactive) |
| CNC(=O)C[C@H]1CC[C@H]2[C@@H](COc3ccc(NC(=O)Nc4cccc(C#N)c4)cc3C(=O)N2C)O1 | 23.1% (inactive) |
| COc1cc(CO)cc(I)c1O[C@H]1C=C(C(=O)NCCO)C[C@@H](N(CC2CCCCC2)C(=O)c2cc3ccccc3oc2=O)[C@@H]1O | 29.4% (inactive) |
| C[C@@H]1CN([C@H](C)CO)C(=O)c2cc(-c3ccc(F)cc3)cnc2O[C@H]1CN(C)CC1CCCCC1 | 6.84% (inactive) |
| CC1CCCCN1C(=O)CSc1nc(C2CC2)nc2c1cnn2-c1ccccc1 (stereo unspecified) | 39.5% (inactive) |

Same assay, conditions: HEK293T viability, ATP luminescence (CellTiter-Glo), 48 h; at 42 µM (top of the series)

| Structure (SMILES) | activity change, negative = cytotoxicity |
| --- | --- |
| CCCC(=O)N1CCCC1(C)C(=O)Nc1cc(C)ccc1C (stereo unspecified) | -20.6% (inactive) |
